The numbers were not newly measured in US20050250118A1 (priority 2003, published 2005), which cites them from elsewhere.

Data set [1] has as its system AD patients. The settings on record: galantamine therapy.
The test system of data set [2] is AD patients. Particulars: presence of the ApoE4 polymorphism.

Take `COc1ccc2c3c1O[C@H]1C[C@@H](O)C=C[C@@]31CCN(C)C2` [galantamine]: the “most common side effects” value in data set [1] is “nausea, vomiting, diarrhea, dizziness and anorexia”. `Nc1c2c(nc3ccccc13)CCCC2` [tacrine]: the “response to treatment with ApoE4 allele present” value in data set [2] was “reduced response to treatment”.
